Laboratory results as given in patent US20240269143A1, “COMBINATION THERAPY COMPRISING A MAT2A INHIBITOR AND TYPE I PRMT INHIBITOR” (IDEAYA BIOSCIENCES, INC., priority 2021, published 2024).

What was measured:
[1] = test system: HCT-116 MTAP-deleted tumors; test: Anti-tumor efficacy in HCT-116 MTAP-deleted mouse xenograft; assay type: in vivo; details: Day fourteen
Experimental: (§1) The effect of Compound A and Compound B as single-agent anti-tumor agents and in combination was assessed in the HCT-116 human colon tumor cell line, MTAP isogenic pair (MTAP proficient (WT) or MTAP-deleted). Cells were expanded in DMEM/F12 GlutaMAX (Fisher Scientific, Catalog Number 10-565-018) with 10% fetal bovine serum. These cells were free of mycoplasma and authenticated as HCT-116 by STR profiling. Two and a half million cells in log growth phase were resuspended in Hanks Balanced Salt Solution containing 50% Matrigel and implanted subcutaneously into the flank of each recipient female CB17/lcr-Prkd^scid/lcrlcoCrl mouse. Mice were housed in microisolator cages with corn cob bedding with additional enrichment consisting of sterile nesting material (Innovive) and Bio-huts (Bio-Serv). Water (Innovive) and diet (Teklad Global 19% Protein Extruded Diet 2919, Irradiated) were provided ad libitum. The environment was maintained on a 12-hour light cycle at approximately 68-72° F. and 40-60% relative humidity.
(§2) Tumor Volume (TV) was calculated using the following formula: TV (mm^3)=(width×width×length)/2. No dose holidays were provided for during the study and all mice were euthanized following the final dose on Day fourteen. Tumor growth inhibition (TGI) was calculated by [(TV controlfinal−TV treatedfinal)/(TV controlfinal−TV controlinitial)×100]. TV was analyzed for statistical significance utilizing GraphPad Prism version 9.1.0. Repeated Measures 2-Way ANOVA with Tukey's Multiple Comparisons was utilized, and P-values were presented from the final tumor measurement and were considered statistically significant if less than 0.05.
(§3) Mean tumor volume at dosing start was approximately 128-145 mm^3, with seven mice randomized to each treatment group. The study design was identical for both models, with the study consisting of six treatment groups. Mice were dosed orally, once per day, with Vehicle, Compound A at 5 mg/kg, Compound B at 9.375 or 18.75 mg/kg, or Compound A at 5 mg/kg and Compound B at 9.375 mg/kg, or Compound A at 5 mg/kg and Compound B at 18.75 mg/kg. The doses were staggered with Compound A given first and Compound B administered 2 hours later. Likewise, the Vehicle B (for Compound B, Saline) was administered to animals 2 hours later than the Vehicle A (for Compound A, 0.5% 400 cps methylcellulose with 0.5% Tween-80 in sterile water).

HCT-116 MTAP WT tumors = test: Anti-tumor efficacy in HCT-116 MTAP WT mouse xenograft; assay type: in vivo; details: Day fourteen
Experimental: as §1, §2, §3

BxPC-3 tumors = test: Anti-tumor efficacy in pancreatic xenograft BxPC-3; assay type: in vivo, mouse; details: Day 28
Experimental: The BxPC-3 tumor cell line was maintained in vitro as a monolayer culture in RPMI 1640 medium supplemented with 10% fetal bovine serum at 37° C. in an atmosphere of 5% CO2 in air. The tumor cells were routinely sub-cultured, not to exceed 4-5 passages. The cells growing in an exponential growth phase were harvested and counted for tumor inoculation. Each mouse was inoculated subcutaneously on the right flank with 5 million BxPC-3 tumor cells in 0.1 mL RPMI 1640 and Matrigel mixture (1:1 ratio) for tumor development.
Tumor Volume (TV) was calculated using the following formula: TV (mm^3)=(width×width×length)/2. No dose holidays were provided for during the study and all mice were euthanized following the final dose on Day 28. Tumor growth inhibition (TGI) was calculated by [(TV controlfinal−TV treatedfinal)/(TV controlfinal−TV controlinitial)×100]. TV was analyzed for statistical significance using GraphPad Prism version 9.1.0. Repeated Measures 2-Way ANOVA with Tukey's Multiple Comparisons was utilized, and P-values were presented from the final tumor measurement and were considered statistically significant if less than 0.05. The treatment started when the mean tumor volume reached about 197 mm^3. Mice were then randomly assigned to respective groups so that the mean starting tumor volume was the same among groups. Mice were dosed orally, once per day, with Vehicle, Compound A at 10 mg/kg, Compound B at 9.375 or 18.75 mg/kg, or Compound A at 10 mg/kg and Compound B at 9.375 mg/kg, or Compound A at 10 mg/kg and Compound B at 18.75 mg/kg. The Doses were staggered with Compound A given first and Compound B administrated 2 hours later. Likewise, the Vehicle B (for Compound B, Saline) was administrated to animals 2 hours later than the Vehicle A (for Compound A, 0.5% 400 cps methylcellulose with 0.5% Tween-80 in sterile water).

[2] = test system: KP4 pancreatic cancer cell line; test: 5-day proliferation screening, combination synergy (HSA, Loewe, Bliss); assay type: cell-based; details: HSA and Loewe models, single agent activity of Compound B
Experimental: (§4) A 4-day proliferation screening was done in colorectal cancer lines HCT116 and HCT116 MTAP−/− (CRISPR Knock-out), and a 5-day proliferation screening was performed in pancreatic cancer cell lines BxPC3, KP4 and lung cancer line, NCI-H838. The nuclei were fluorescent tagged for all the cell lines. Combinations included a 5-fold titration from 10 uM for MAT2Ai (Compound A) and 5-fold titration from 20 uM for Type1 PRMTi (Compound B). Cells were plated at a seeding density 1000 cells/well in a 96-well format 24h before treatment and treated the following day with an 8×8 double matrix titration (five-fold dilution series) of Compound A (MAT2Ai) and Compound B (Type I PRMTi). Triplicates were run for each data point. Nuclear count was measured at the end point using the IncuCyte S3 Live-Cell Analysis System. Average fluorescence of cells treated with DMSO was set to 100% and the % viable cells were calculated accordingly. Dose response curves for single drug activity and drug-drug synergy for combinations were generated using Combenefit software. Synergy was evaluated using HSA, Loewe, and Bliss models.

[3] = test system: NCI-H838 lung cancer line; test: as above; assay type: cell-based; details: HSA and Loewe models, single agent activity of Compound B
Experimental: as §4

[4] = Compound A 5 mg/kg orally once per day
[5] = Compound A 10 mg/kg orally once per day
[6] = Compound B 9.375 mg/kg orally once per day
[7] = Compound B 18.75 mg/kg orally once per day

Row | SMILES | Final TV (mean) [1, 4] [mm^3] | TGI (tumor growth inhibition) [1, 4] [%] | Final TV (mean) (HCT-116 MTAP WT tumors; [4]) [mm^3] | TGI (tumor growth inhibition) (HCT-116 MTAP WT tumors; [4]) [%] | Final TV (mean) (BxPC-3 tumors; [5]) [mm^3] | TGI (tumor growth inhibition) (BxPC-3 tumors; [5]) [%] | Final TV (mean) [1, 6] [mm^3] | TGI (tumor growth inhibition) [1, 6] [%] | Final TV (mean) [1, 7] [mm^3] | TGI (tumor growth inhibition) [1, 7] [%] | Final TV (mean) (HCT-116 MTAP WT tumors; [6]) [mm^3] | TGI (tumor growth inhibition) (HCT-116 MTAP WT tumors; [6]) [%] | Final TV (mean) (HCT-116 MTAP WT tumors; [7]) [mm^3] | TGI (tumor growth inhibition) (HCT-116 MTAP WT tumors; [7]) [%] | Final TV (mean) (BxPC-3 tumors; [6]) [mm^3] | TGI (tumor growth inhibition) (BxPC-3 tumors; [6]) [%] | Final TV (mean) (BxPC-3 tumors; [7]) [mm^3] | TGI (tumor growth inhibition) (BxPC-3 tumors; [7]) [%] | concentration of Compound B above which modest cytotoxicity observed [2] | concentration of Compound B above which modest cytotoxicity observed [3]
1 | Nc1nc(=O)n(-c2ccccc2Cl)c2nc(C(F)(F)F)ccc12 [Compound A] | 232 | 68 | 539 | 56 | 686 | 37 | – | – | – | – | – | – | – | – | – | – | – | – | – | –
2 | CCOCC1(COCC)CCC(c2n[nH]cc2CN(C)CCNC)CC1 [Compound B] | – | – | – | – | – | – | 441 | 4 | 357 | 30 | 928 | 13 | 907 | 16 | 638 | 44 | 415 | 72 | above 0.8 uM | above 0.16 uM
